In US12559492B2, “BRAF degraders” (C4 Therapeutics, Inc., priority 2020, dated 2026):

Target: BRAF^V600E protein (Homo sapiens, UniProt P15056, V600E)
Experiment: HiBiT cellular BRAF V600E degradation assay
Format: cell-based
Conditions: 24 h incubation; for DC50: A375.10 cells (HiBiT tag knocked in at N-terminal of BRAF V600E), concentration at which 50% of total cellular BRAF V600E is degraded; for Emax: read-out: HiBit 24 h Emax
[1] = A375.10 cells, Emax = amount of residual protein remaining in the cell after compound treatment

BRAF^V600E protein, sequence (P15056 whole entry V600E): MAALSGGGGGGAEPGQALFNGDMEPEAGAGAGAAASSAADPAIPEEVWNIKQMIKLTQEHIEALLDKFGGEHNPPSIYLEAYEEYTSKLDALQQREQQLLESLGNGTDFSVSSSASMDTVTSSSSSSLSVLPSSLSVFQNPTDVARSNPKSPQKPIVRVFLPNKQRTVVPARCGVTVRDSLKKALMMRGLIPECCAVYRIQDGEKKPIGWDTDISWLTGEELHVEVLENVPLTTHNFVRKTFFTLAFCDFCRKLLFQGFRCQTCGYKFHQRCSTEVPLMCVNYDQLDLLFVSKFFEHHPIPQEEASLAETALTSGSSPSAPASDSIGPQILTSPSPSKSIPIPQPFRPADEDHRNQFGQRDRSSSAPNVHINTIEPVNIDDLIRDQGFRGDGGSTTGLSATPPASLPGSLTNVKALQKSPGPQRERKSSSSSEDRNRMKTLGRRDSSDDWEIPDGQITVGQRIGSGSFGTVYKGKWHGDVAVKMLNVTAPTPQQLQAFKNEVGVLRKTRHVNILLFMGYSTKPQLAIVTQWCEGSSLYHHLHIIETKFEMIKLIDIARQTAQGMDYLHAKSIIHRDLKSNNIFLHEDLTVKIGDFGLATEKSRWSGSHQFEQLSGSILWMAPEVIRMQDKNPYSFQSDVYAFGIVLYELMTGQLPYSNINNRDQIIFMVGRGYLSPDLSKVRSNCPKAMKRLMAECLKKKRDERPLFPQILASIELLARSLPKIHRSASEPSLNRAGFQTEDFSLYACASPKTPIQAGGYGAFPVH

DC50 | Emax [1] | HiBit 24 h Emax [1] | SMILES
8 nM | 11% |  | CCN(C)S(=O)(=O)Nc1ccc(F)c(C(=O)c2c[nH]c3ncc(-c4cnc(N5CCN(C(=O)CN6CCN(c7ccc(NC8CCC(=O)NC8=O)cc7)CC6)CC5)nc4)cc23)c1F (stereo not drawn) [Example A16, 5-[2-[4-[2-[4-[4-[(2,6-Dioxopiperidin-3-yl)amino]phenyl]piperazin-1-yl]acetyl]piperazin-1-yl]pyrimidin-5-yl]-3-[3-[[ethyl(methyl)sulfamoyl]amino]-2,6-difluorobenzoyl]-1H-pyrrolo[2,3-b]pyridine]
44 nM | 14% |  | CCN(C)S(=O)(=O)Nc1ccc(F)c(C(=O)c2c[nH]c3ncc(-c4ccc(N5CCN(C(=O)CCCN6CCC(c7ccc(NC8CCC(=O)NC8=O)cc7)CC6)CC5)nc4)cc23)c1F (stereo not drawn) [Example A17, 5-[6-[4-[4-[4-[4-[(2,6-Dioxopiperidin-3-yl)amino]phenyl]piperidin-1-yl]butanoyl]piperazin-1-yl]pyridin-3-yl]-3-[3-[[ethyl(methyl)sulfamoyl]amino]-2,6-difluorobenzoyl]-1H-pyrrolo[2,3-b]pyridine]
42 nM | 15% |  | CCN(C)S(=O)(=O)Nc1ccc(F)c(C(=O)c2c[nH]c3ncc(-c4cnc(N5CCN(C(=O)CCCN6CCC(c7ccc(NC8CCC(=O)NC8=O)cc7)CC6)CC5)nc4)cc23)c1F (stereo not drawn) [Example A18, 5-[2-[4-[4-[4-[4-[(2,6-Dioxopiperidin-3-yl)amino]phenyl]piperidin-1-yl]butanoyl]piperazin-1-yl]pyrimidin-5-yl]-3-[3-[[ethyl(methyl)sulfamoyl]amino]-2,6-difluorobenzoyl]-1H-pyrrolo[2,3-b]pyridine]
84 nM | 19% |  | CCN(C)S(=O)(=O)Nc1ccc(F)c(C(=O)c2c[nH]c3ncc(-c4ccc(CN5CCC(C(=O)N6CCN(c7ccc(OC8CCC(=O)NC8=O)cc7)CC6)C5)cc4)cc23)c1F (stereo not drawn) [Example A19, 5-[4-[[3-[4-[4-(2,6-Dioxopiperidin-3-yl)oxyphenyl]piperazine-1-carbonyl]pyrrolidin-1-yl]methyl]phenyl]-3-[3-[[ethyl(methyl)sulfamoyl]amino]-2,6-difluorobenzoyl]-1H-pyrrolo[2,3-b]pyridine]
138 nM | 24% |  | CCN(C)S(=O)(=O)Nc1ccc(F)c(C(=O)c2c[nH]c3ncc(-c4ccc(CN5CCC(C(=O)N6CCC(c7ccc(OC8CCC(=O)NC8=O)cc7)CC6)C5)cc4)cc23)c1F (stereo not drawn) [Example A20, 5-[4-[[3-[4-[4-(2,6-Dioxopiperidin-3-yl)oxyphenyl]piperidine-1-carbonyl]pyrrolidin-1-yl]methyl]phenyl]-3-[3-[[ethyl(methyl)sulfamoyl]amino]-2,6-difluorobenzoyl]-1H-pyrrolo[2,3-b]pyridine]
21 nM |  | 13% | CCN(C)S(=O)(=O)Nc1ccc(F)c(C(=O)c2c[nH]c3ncc(-c4ccc(CN5CCN(CC(=O)N6CCC(c7ccc(NC8CCC(=O)NC8=O)cc7)CC6)CC5)cc4)cc23)c1F.O=C(O)C(F)(F)F (stereo not drawn) [Example A21, 5-[4-[[4-[2-[4-[4-[(2,6-Dioxopiperidin-3-yl)amino]phenyl]piperidin-1-yl]-2-oxoethyl]piperazin-1-yl]methyl]phenyl]-3-[3-[[ethyl(methyl)sulfamoyl]amino]-2,6-difluorobenzoyl]-1H-pyrrolo[2,3-b]pyridine;2,2,2-trifluoroacetic acid]
77 nM | 20% |  | CCN(C)S(=O)(=O)Nc1ccc(F)c(C(=O)c2c[nH]c3ncc(-c4ccc(CN5CCN(C(=O)CN6CCC(c7ccc(OC8CCC(=O)NC8=O)cc7)CC6)CC5)cc4)cc23)c1F (stereo not drawn) [Example A22, 5-[4-[[4-[2-[4-[4-(2,6-Dioxopiperidin-3-yl)oxyphenyl]piperidin-1-yl]acetyl]piperazin-1-yl]methyl]phenyl]-3-[3-[[ethyl(methyl)sulfamoyl]amino]-2,6-difluorobenzoyl]-1H-pyrrolo[2,3-b]pyridine]
19 nM | 13% |  | CCN(C)S(=O)(=O)Nc1ccc(F)c(C(=O)c2c[nH]c3ncc(-c4ccc(CN5CCN(C(=O)CN6CCC(c7ccc(NC8CCC(=O)NC8=O)cc7)CC6)CC5)cc4)cc23)c1F (stereo not drawn) [Example A23, 5-[4-[[4-[2-[4-[4-[(2,6-Dioxopiperidin-3-yl)amino]phenyl]piperidin-1-yl]acetyl]piperazin-1-yl]methyl]phenyl]-3-[3-[[ethyl(methyl)sulfamoyl]amino]-2,6-difluorobenzoyl]-1H-pyrrolo[2,3-b]pyridine]

Continued, compound first:

SMILES | DC50 | Emax [1] | HiBit 24 h Emax [1]
CCN(C)S(=O)(=O)Nc1ccc(F)c(C(=O)c2c[nH]c3ncc(-c4cnc(N5CCN(C(=O)CN6CCC(c7ccc(OC8CCC(=O)NC8=O)cc7)CC6)CC5)nc4)cc23)c1F (stereo not drawn) [Example A6, 5-[2-[4-[2-[4-[4-(2,6-Dioxopiperidin-3-yl)oxyphenyl]piperidin-1-yl]acetyl]piperazin-1-yl]pyrimidin-5-yl]-3-[3-[[ethyl(methyl)sulfamoyl]amino]-2,6-difluorobenzoyl]-1H-pyrrolo[2,3-b]pyridine] | 15 nM | 13% | 
CCN(C)S(=O)(=O)Nc1ccc(F)c(C(=O)c2c[nH]c3ncc(-c4ccc(CN5CCN(CC(=O)N6CCC(c7ccc(NC8CCC(=O)NC8=O)cc7)CC6)CC5)nc4)cc23)c1F (stereo not drawn) [Example A7, 5-[6-[[4-[2-[4-[4-[(2,6-Dioxopiperidin-3-yl)amino]phenyl]piperidin-1-yl]-2-oxoethyl]piperazin-1-yl]methyl]pyridin-3-yl]-3-[3-[[ethyl(methyl)sulfamoyl]amino]-2,6-difluorobenzoyl]-1H-pyrrolo[2,3-b]pyridine;2,2,2-trifluoroacetic acid] | 16.8 nM | 12.9% | 
CCN(C)S(=O)(=O)Nc1ccc(F)c(C(=O)c2c[nH]c3ncc(-c4ccc(N5CCN(C(=O)CN6CCC(c7ccc(NC8CCC(=O)NC8=O)cc7)CC6)CC5)nc4)cc23)c1F (stereo not drawn) [Example A8, 5-[6-[4-[2-[4-[4-[(2,6-Dioxopiperidin-3-yl)amino]phenyl]piperidin-1-yl]acetyl]piperazin-1-yl]pyridin-3-yl]-3-[3-[[ethyl(methyl)sulfamoyl]amino]-2,6-difluorobenzoyl]-1H-pyrrolo[2,3-b]pyridine] | 8.18 nM | 9.42% | 
CCN(C)S(=O)(=O)Nc1ccc(F)c(C(=O)c2c[nH]c3ncc(-c4ccc(CN5CCN(C(=O)CN6CCC(c7ccc(NC8CCC(=O)NC8=O)cc7)CC6)CC5)nc4)cc23)c1F (stereo not drawn) [Example A9, 5-[6-[[4-[2-[4-[4-[(2,6-Dioxopiperidin-3-yl)amino]phenyl]piperidin-1-yl]acetyl]piperazin-1-yl]methyl]pyridin-3-yl]-3-[3-[[ethyl(methyl)sulfamoyl]amino]-2,6-difluorobenzoyl]-1H-pyrrolo[2,3-b]pyridine] | 30 nM | 14% | 
CCN(C)S(=O)(=O)Nc1ccc(F)c(C(=O)c2c[nH]c3ncc(-c4cnc(N5CCN(C(=O)CN6CCC(c7ccc(NC8CCC(=O)NC8=O)cc7)CC6)CC5)nc4)cc23)c1F (stereo not drawn) [Example A10, 5-[2-[4-[2-[4-[4-[(2,6-Dioxopiperidin-3-yl)amino]phenyl]piperidin-1-yl]acetyl]piperazin-1-yl]pyrimidin-5-yl]-3-[3-[[ethyl(methyl)sulfamoyl]amino]-2,6-difluorobenzoyl]-1H-pyrrolo[2,3-b]pyridine] | 3 nM | 8% | 
CCN(C)S(=O)(=O)Nc1ccc(F)c(C(=O)c2c[nH]c3ncc(-c4ccc(N5CCN(C(=O)CN6CCN(c7ccc(NC8CCC(=O)NC8=O)cc7)CC6)CC5)nc4)cc23)c1F (stereo not drawn) [Example A11, 5-[6-[4-[2-[4-[4-[(2,6-Dioxopiperidin-3-yl)amino]phenyl]piperazin-1-yl]acetyl]piperazin-1-yl]pyridin-3-yl]-3-[3-[[ethyl(methyl)sulfamoyl]amino]-2,6-difluorobenzoyl]-1H-pyrrolo[2,3-b]pyridine] | 6.71 nM | 11.6% | 
CCN(C)S(=O)(=O)Nc1ccc(F)c(C(=O)c2c[nH]c3ncc(-c4ccc(CN5CCN(C(=O)CN6CCN(c7ccc(NC8CCC(=O)NC8=O)cc7)CC6)CC5)nc4)cc23)c1F (stereo not drawn) [Example A12, 5-[6-[[4-[2-[4-[4-[(2,6-Dioxopiperidin-3-yl)amino]phenyl]piperazin-1-yl]acetyl]piperazin-1-yl]methyl]pyridin-3-yl]-3-[3-[[ethyl(methyl)sulfamoyl]amino]-2,6-difluorobenzoyl]-1H-pyrrolo[2,3-b]pyridine] | 74 nM | 24% | 
CCN(C)S(=O)(=O)Nc1ccc(F)c(C(=O)c2c[nH]c3ncc(-c4ccc(CN5CCN(C6CCN(C(=O)CN7CCC(c8ccc(NC9CCC(=O)NC9=O)cc8)CC7)CC6)CC5)cc4)cc23)c1F (stereo not drawn) [Example A13, 5-[4-[[4-[1-[2-[4-[4-[(2,6-Dioxopiperidin-3-yl)amino]phenyl]piperidin-1-yl]acetyl]piperidin-4-yl]piperazin-1-yl]methyl]phenyl]-3-[3-[[ethyl(methyl)sulfamoyl]amino]-2,6-difluorobenzoyl]-1H-pyrrolo[2,3-b]pyridine] | 91 nM | 23% | 
CCN(C)S(=O)(=O)Nc1ccc(F)c(C(=O)c2c[nH]c3ncc(-c4ccc(N5CCN(C(=O)CN6CCC(c7ccc(OC8CCC(=O)NC8=O)cc7)CC6)CC5)cc4)cc23)c1F (stereo not drawn) [Example A14, 5-[4-[4-[2-[4-[4-(2,6-Dioxopiperidin-3-yl)oxyphenyl]piperidin-1-yl]acetyl]piperazin-1-yl]phenyl]-3-[3-[[ethyl(methyl)sulfamoyl]amino]-2,6-difluorobenzoyl]-1H-pyrrolo[2,3-b]pyridine] | 10.6 nM | 9.74% | 
CCN(C)S(=O)(=O)Nc1ccc(F)c(C(=O)c2c[nH]c3ncc(-c4ccc(N5CCN(C(=O)CCCN6CCC(c7ccc(OC8CCC(=O)NC8=O)cc7)CC6)CC5)cc4)cc23)c1F (stereo not drawn) [Example A15, 5-[4-[4-[4-[4-[4-(2,6-Dioxopiperidin-3-yl)oxyphenyl]piperidin-1-yl]butanoyl]piperazin-1-yl]phenyl]-3-[3-[[ethyl(methyl)sulfamoyl]amino]-2,6-difluorobenzoyl]-1H-pyrrolo[2,3-b]pyridine] | 24 nM | 14% | 
